Test results reported in patent US6720346B2, “Thiazole benzamide derivatives and pharmaceutical compositions for inhibiting cell proliferation” (Agouron Pharmaceuticals, Inc., priority 2001, dated 2004).
Where a name gives a salt, the structure may show the parent alone.

Columns and labels:
human CDK4/cyclin D3 = target: T1, human CDK4/cyclin D3 (Homo sapiens, UniProt P11802); assay: Inhibition of CDK4/cyclin D retinoblastoma kinase activity (Ki; % inhibition); assay type: biochemical; details: apparent Ki, CDK4/cyclin D3, Rb substrate
T1 construct: made in house; host or cells: insect cells co-infected with baculovirus vectors
T1 sequence (P11802 whole entry): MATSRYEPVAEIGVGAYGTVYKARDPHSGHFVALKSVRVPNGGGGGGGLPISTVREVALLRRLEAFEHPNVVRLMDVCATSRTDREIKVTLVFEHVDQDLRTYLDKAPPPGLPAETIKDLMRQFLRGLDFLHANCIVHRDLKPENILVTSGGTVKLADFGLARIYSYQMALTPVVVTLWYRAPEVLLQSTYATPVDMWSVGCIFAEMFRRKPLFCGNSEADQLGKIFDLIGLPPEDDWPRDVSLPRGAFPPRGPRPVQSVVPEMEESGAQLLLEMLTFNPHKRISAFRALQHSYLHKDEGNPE
T1 sequence (P30281 1-264 partner limits assumed): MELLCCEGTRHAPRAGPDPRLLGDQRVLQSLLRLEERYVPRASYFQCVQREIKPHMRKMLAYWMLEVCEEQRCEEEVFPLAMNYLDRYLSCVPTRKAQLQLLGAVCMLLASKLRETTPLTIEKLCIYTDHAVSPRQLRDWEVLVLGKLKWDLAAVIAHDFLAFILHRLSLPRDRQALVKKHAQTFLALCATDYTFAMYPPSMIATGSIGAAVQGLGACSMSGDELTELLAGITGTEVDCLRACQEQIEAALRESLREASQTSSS
In short: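 Radiometric filter-binding read-out: Rb residues 386-928 phosphorylated by 5 nM CDK4/cyclin D3(1-264) from baculovirus-infected insect cells, 25 μM ATP, HEPES pH 7.4, 30 °C. Run 20 min, or 60 min for tight-binding inhibitors. Screening at 30 nM theoretical compound; apparent Ki by competitive-inhibition fitting.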

[1] = target: T2, Phosphorylated FGF receptor kinase (FGFR1 cytosolic domain) (Homo sapiens, UniProt P11362, C488A/C584S/L457V); assay: Inhibition of phosphorylated FGF receptor tyrosine kinase activity (coupled spectrophotometric assay); assay type: biochemical; details: read-out: P-FGF % Inhibition at 1 μM
T2 construct: FGFR1 tyrosine kinase (amino acids 456-766); made in house; host or cells: Sf9 insect cells (baculovirus)
T2 sequence (P11362 456-766 L457V/C488A/C584S): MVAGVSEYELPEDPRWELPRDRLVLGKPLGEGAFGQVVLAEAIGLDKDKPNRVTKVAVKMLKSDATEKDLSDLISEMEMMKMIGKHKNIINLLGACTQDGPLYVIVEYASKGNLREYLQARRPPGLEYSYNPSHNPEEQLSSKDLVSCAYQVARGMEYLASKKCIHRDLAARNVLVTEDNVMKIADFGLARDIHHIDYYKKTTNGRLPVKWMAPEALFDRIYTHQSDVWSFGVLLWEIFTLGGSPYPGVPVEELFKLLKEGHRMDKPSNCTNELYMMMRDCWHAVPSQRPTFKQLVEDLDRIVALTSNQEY
Description: (§1) Cloning, expression and purification of the cytosolic domain of FGFR1 tyrosine kinase (amino acids 456-766) containing three amino acid substitutions (L457V, C488A, and C584S) were conducted as previously described (Mohammadi, M., Schiessinger, J., & Hubbard, S. R. Cell, 86, (1996) 577-587). This domain was expressed in Sf9 insect cells using a baculovirus expression vector, and protein was purified using conventional techniques. The LCK tyrosine kinase was expressed in insect cells as an N-terminal deletion starting from amino acid 223 to the end of the protein at amino acid 509. The N-terminus of the protein also had two amino acid substitutions, P223M and C224D. Kinases were purified using conventional chromatographic methods.
(§2) Tyrosine kinase activity was measured using a coupled, continuous spectrophotometric assay, in which production of phosphorylated poly(Glu,Tyr; 4:1) substrate and ADP is coupled to the pyruvate kinase-catalyzed transfer of a phosphate from phosphoenolpyruvate to ADP, with generation of pyruvate and regeneration of ATP. Pyruvate production is in turn coupled to the lactate dehydrogenase-catalyzed reduction of pyruvate to form lactate, with concomitant conversion of NADH to NAD^+. Loss of NADH is monitored by measuring absorbance at 340 nm (see e.g., Technikova-Dobrova et al., “Spectrophotometric Determination of Functional Characteristics of Protein Kinases with Coupled Enzymatic Assay,” FEBS Letters, 292 (1991), pp. 69-72). Enzyme activity was measured in the presence of 200 mM HEPES (pH 7.5), 2 mM phosphoenolpyruvate, 0.3 mM NADH, 20 mM MgCl2, 100 μM ATP, 5 mM DTT, 5.1 or 25 mM poly (Glu,Tyr) 4:1 for P-FGF or P-LCK assays, respectively, and 15 units/mL each of pyruvate kinase and lactate dehydrogenase. Phosphorylated FGF receptor kinase was present at 100 nM and phosphorylated LCK kinase was present at 50 nM. Assays were performed under initial rate conditions at 37° C., and rates were corrected for any background rate measured in the absence of enzyme. Percent inhibition was calculated relative to control enzyme assayed in the presence of 2% (v/v) DMSO.

[2] = target: T3, phosphorylated LCK kinase (Homo sapiens, UniProt P06239, C224D/P223M); assay: Inhibition of phosphorylated LCK tyrosine kinase activity (coupled spectrophotometric assay); assay type: biochemical; details: read-out: P-LCK % Inhibition at 1 μM
T3 construct: starting from amino acid 223 to the end of the protein at amino acid 509; made in house; host or cells: insect cells
T3 sequence (P06239 223-509 P223M/C224D): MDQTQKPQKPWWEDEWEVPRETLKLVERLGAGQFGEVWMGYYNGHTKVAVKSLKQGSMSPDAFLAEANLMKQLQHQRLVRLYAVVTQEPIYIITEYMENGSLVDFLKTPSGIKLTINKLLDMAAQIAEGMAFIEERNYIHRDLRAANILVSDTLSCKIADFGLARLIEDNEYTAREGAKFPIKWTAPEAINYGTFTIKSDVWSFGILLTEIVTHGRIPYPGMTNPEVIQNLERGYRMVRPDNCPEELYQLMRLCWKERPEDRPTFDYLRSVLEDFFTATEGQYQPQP
Description: as §1, §2

CDK2/cyclin A = target: T4, CDK2/cyclin A (Homo sapiens, UniProt P24941); assay: Inhibition of CDK2/cyclin A retinoblastoma kinase activity (Ki; % inhibition); assay type: biochemical; details: apparent Ki, CDK2/cyclin A, Rb substrate
T4 construct: made in house; host or cells: CDK2: insect cells (baculovirus); cyclin A: E. coli
In short: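 Apparent Ki values came from fitting concentration-dependent activity data to competitive (or competitive tight-binding) models, and % inhibition from single 30 nM screens of library compounds. Activity was measured as ³²P/³³P incorporation from 25 μM ATP into an Rb substrate by 10 or 19 nM CDK2/delta cyclin A at 30 °C over 60–75 min, pH 7.4.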

HCT-116 cell line = assay: Inhibition of cell growth, MTT tetrazolium salt assay; assay type: cell-based; details: Homo sapiens, HCT-116, 120 h; MTT, three to five days
In short: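 HCT-116 cells in McCoy's 5A were dosed 4 h after plating with compounds in 0.5% DMSO and grown 3–5 days at 37 °C. Then 0.2 mg/mL MTT was added for 4 h and formazan absorbance read at 540 nm. IC50/IC90 came from semi-log plots against DMSO-only controls.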

[3] = target: T5, human CDK1 (cdc2)/cyclin B (Homo sapiens, UniProt P06493); assay: Inhibition of CDK1 (cdc2)/cyclin B histone H1 kinase activity; assay type: biochemical; details: histone H1 substrate
T5 construct: purchased New England Biolabs (Beverly, Mass.)
T5 sequence (P06493 whole entry): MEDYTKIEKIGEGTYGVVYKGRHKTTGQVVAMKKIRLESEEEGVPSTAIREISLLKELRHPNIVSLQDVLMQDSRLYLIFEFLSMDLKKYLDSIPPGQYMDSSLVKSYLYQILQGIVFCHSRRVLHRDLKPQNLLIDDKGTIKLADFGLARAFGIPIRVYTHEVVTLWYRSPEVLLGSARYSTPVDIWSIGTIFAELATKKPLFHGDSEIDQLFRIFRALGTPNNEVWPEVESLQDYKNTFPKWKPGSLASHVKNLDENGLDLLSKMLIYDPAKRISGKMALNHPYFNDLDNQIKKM
T5 sequence (P14635 whole entry partner): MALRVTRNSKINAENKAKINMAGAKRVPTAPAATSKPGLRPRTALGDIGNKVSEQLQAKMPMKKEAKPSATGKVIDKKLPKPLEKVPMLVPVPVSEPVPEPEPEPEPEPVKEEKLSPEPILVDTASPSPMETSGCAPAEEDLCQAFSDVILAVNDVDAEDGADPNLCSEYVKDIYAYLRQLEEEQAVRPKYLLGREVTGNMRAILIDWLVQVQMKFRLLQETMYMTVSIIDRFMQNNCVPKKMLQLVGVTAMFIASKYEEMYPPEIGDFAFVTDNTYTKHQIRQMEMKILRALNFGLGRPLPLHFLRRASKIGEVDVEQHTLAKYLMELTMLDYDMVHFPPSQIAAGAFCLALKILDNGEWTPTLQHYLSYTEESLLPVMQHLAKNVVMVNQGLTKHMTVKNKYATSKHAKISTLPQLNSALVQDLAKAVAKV
Description: Cyclin-dependent kinase activity was measured by quantifying the enzyme-catalyzed, time-dependent incorporation of radioactive phosphate from [^32P]ATP or [^33P]ATP into a protein substrate. Unless noted otherwise, assays were performed in 96-well plates in a total volume of 50 μL, in the presence of 10 mM HEPES (N-[2-hydroxyethyl]piperazine-N′-[2-ethanesulfonic acid]) (pH 7.4), 10 mM MgCl2, 25 μM adenosine triphosphate (ATP), 1 mg/mL ovalbumin, 5 μg/mL leupeptin, 1 mM dithiothreitol, 10 mM β-glycerophosphate, 0.1 mM sodium vanadate, 1 mM sodium fluoride, 2.5 mM ethylene glycol-bis(β-aminoethyl ether)-N,N,N′N′-tetraacetic acid (EGTA), 2% (v/v) dimethylsulfoxide, and 0.03-0.4 μCi [^32/33P]ATP per reaction. Reactions were initiated with enzyme, incubated at 30° C., and terminated after 20 minutes by the addition of ethylenediaminetetraacetic acid (EDTA) to 250 mM. The phosphorylated substrate was then captured on a nitrocellulose or phosphocellulose membrane using a 96-well filtration manifold, and unincorporated radioactivity was removed by repeated washing with 0.85% phosphoric acid. Radioactivity was quantified by exposing the dried membranes to a phosphorimager.
Compounds from combinatorial libraries were screened from 96-well plates for % inhibition of CDK activity at 30 nM theoretical compound concentration. Inhibition was measured relative to control wells that contained all reaction components including 2% (v/v) DMSO but no compound, after subtraction of background radioactivity measured in the absence of enzyme. Apparent Ki values of discrete compounds were measured by assaying enzyme activity in the presence of different inhibitor compound concentrations and subtracting the background radioactivity measured in the absence of enzyme. The kinetic parameters (kcat, Km for ATP) were measured for each enzyme under the usual assay conditions by determining the dependence of initial rates on ATP concentration. Inhibition data were fit to an equation for competitive inhibition using Kaleidagraph (Synergy Software), or were fit to an equation for competitive tight-binding inhibition using the software KineTic (BioKin, Ltd.).
The complex of human CDK1 (cdc2) and cyclin B was purchased from New England Biolabs (Beverly, Mass.). Alternatively, a CDK1/glutathione-S-transferase-cyclin B1 complex was purified using glutathione affinity chromatography from insect cells that had been co-infected with the corresponding baculovirus expression vectors. The assay was executed as described above at 30° C. using 2.5 units of cdc2/cyclin B, 10 μg Histone H1 protein, and 0.1-0.3 μCi [^32/33P]ATP per assay. Phosphorylated histone substrate was captured by microfiltration on a phosphocellulose P81 membrane and quantified using a phosphorimager as described above. Ki values were measured using the described curve-fitting programs.

Compound	Ki (human CDK4/cyclin D3) [nM]	inhibition at 1 µM [1] [%]	inhibition at 1 µM [2] [%]	Ki (CDK2/cyclin A) [nM]	IC50 (HCT-116 cell line) [nM]	Ki [3] [nM]	melting point
CN(C)CCN(C)C(=O)c1ccc(Nc2nc(N)c(C(=O)c3c(F)cccc3F)s2)cc1 [Example A3, 4-[4-Amino-5-(2,6-difluoro-benzoyl)-thiazol-2-ylamino]-N-(2-dimethylamino-ethyl)-N-methyl-benzamide]	21	7	5	170	750	–	–
Nc1nc(Nc2ccc(C(=O)NCCNc3ccccc3)cc2)sc1C(=O)c1c(F)cccc1F [Example A2, 4-[4-Amino-5-(2,6-difluoro-benzoyl)-thiazol-2-ylamino]-N-(2-phenylamino-ethyl)-benzamide]	8	8	4	3.2	140	–	–
CC(CCCC(C)(C)O)NC(=O)c1ccc(Nc2nc(N)c(C(=O)c3c(F)cccc3F)s2)cc1 (stereo not drawn) [Example A5, 4-[4-Amino-5-(2,6-difluoro-benzoyl)-thiazol-2-ylamino]-N-(6-hydroxy-6-methyl-hept-2-yl)-benzamide]	66	5	3	72	1200	–	–
Nc1nc(Nc2ccc(C(=O)Nc3ccccc3)cc2)sc1C(=O)c1c(F)cccc1F [Example A9, 4-[4-Amino-5-(2,6-difluoro-benzoyl)-thiazol-2-ylamino]-N-phenyl-benzamide]	12	5	5	27	140	–	–
CCN1CCCC1CNC(=O)c1ccc(Nc2nc(N)c(C(=O)c3c(F)cccc3F)s2)cc1 (stereo not drawn) [Example A11, 4-[4-Amino-5-(2,6-difluoro-benzoyl)-2-ylamino]-N-(1-ethyl-pyrrolidin-2RS-ylmethyl)-benzamide]	14	–	6	82	170	–	–
Nc1nc(Nc2ccc(C(=O)Nc3ccc4c(c3)OCCO4)cc2)sc1C(=O)c1c(F)cccc1F [Example A17, 4-[4-Amino-5-(2,6-difluoro-benzoyl)-thiazol-2-ylamino]-N-(2,3-dihydro-benzo[1,4]dioxin-6-yl)-benzamide]	26	0	0	51	100	–	–
C[C@H](CNC(=O)c1ccc(Nc2nc(N)c(C(=O)c3c(F)cccc3F)s2)cc1)N(C)C [Example A44, 4-[4-Amino-5-(2,6-difluoro-benzoyl)-thiazol-2-ylamino]-N-(2R-dimethylamino-propyl)-benzamide]	10	–	–	120	130	72	–
CN(C)CC(C)(C)NC(=O)c1ccc(Nc2nc(N)c(C(=O)c3c(F)cccc3F)s2)cc1 (as salt: hydrochloride) [Example A61, 4-[4-Amino-5-(2,6-difluoro-benzoyl)-thiazol-2-ylamino]-N-(2-dimethylamino-1,1-dimethyl-ethyl)-benzamide Dihydrochloride]	–	–	–	–	–	–	275 to 290 °C (dec.)
CC(=O)N(C)c1ccc(NC(=O)c2ccc(Nc3nc(N)c(C(=O)c4c(F)cccc4F)s3)cc2)cc1 [Example A25]	13	0	0	62	94	–	–
